Literature values as cited in patent publication US10154669B2, “Improving color and release profile of resin compositions comprising silver nanoparticles” (The Board of Regents of the University of Texas System, priority 2013, dated 2018).

Conditions: in water

For `C=C(C)C(=O)OC` [methyl methacrylate], the water solubility is listed as “about 1.6 g in 100 g of water”.
